Measured values published in paper PMC11256326, “Discovery of Heparin Mimetic, Potent, and Selective Inhibitors of Human Clotting Factor XIIIa” (ACS Omega, 2024).

Molecular target: T1, rTG-2 (recombinant human tissue transglutaminase-2) (Homo sapiens, UniProt P21980)
T1 construct: purchased Tocris Bioscience
T1 sequence (P21980 1-687): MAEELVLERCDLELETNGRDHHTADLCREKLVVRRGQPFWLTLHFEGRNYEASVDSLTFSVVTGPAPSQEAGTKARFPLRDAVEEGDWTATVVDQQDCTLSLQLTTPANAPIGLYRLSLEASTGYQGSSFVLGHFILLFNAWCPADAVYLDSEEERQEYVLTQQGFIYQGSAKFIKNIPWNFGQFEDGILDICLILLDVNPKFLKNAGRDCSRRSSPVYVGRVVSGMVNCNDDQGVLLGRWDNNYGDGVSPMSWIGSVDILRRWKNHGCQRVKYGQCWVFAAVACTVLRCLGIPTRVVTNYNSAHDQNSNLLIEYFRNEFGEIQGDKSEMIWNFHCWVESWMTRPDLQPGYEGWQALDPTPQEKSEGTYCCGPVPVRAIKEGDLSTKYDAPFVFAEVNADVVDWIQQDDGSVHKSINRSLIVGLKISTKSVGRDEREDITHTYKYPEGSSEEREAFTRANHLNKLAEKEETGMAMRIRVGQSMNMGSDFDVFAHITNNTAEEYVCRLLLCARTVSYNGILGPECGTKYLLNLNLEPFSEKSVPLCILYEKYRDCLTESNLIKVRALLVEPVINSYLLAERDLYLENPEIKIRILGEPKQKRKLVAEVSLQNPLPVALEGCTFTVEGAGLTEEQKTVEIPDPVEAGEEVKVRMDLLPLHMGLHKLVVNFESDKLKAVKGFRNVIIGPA
Assay: bisubstrate, fluorescence-based trans-glutamination assay with recombinant TG-2
Format: biochemical
Excerpt: FXIIIa and TG-2 belong to the same transglutaminase superfamily, and they share similar protein folds with a sequence similarity of 34%. Although we believe that sulfonated heparin mimetics are less likely to distribute to peripheral tissues, we evaluated inhibitor 16′s potential to inhibit TG-2 (we used recombinant TG-2). […] Likewise, we studied the inhibition of papain, a related cysteine protease, by molecule 16.
Human plasma proteins such as FXIIIa, thrombin, factor Xa, and factor XIa were procured from Haematologic Technologies. Recombinant human TG-2 was sourced from Tocris Bioscience. Their activities were validated according to the supplier’s instructions. Chromogenic substrates for thrombin and factor Xa were acquired from Biomedica Diagnostics, while the factor XIa chromogenic substrate (S-2366) was obtained from Diapharma. Dithiothreitol, N,N-dimethylcasein, and dansylcadaverine were purchased from Sigma Aldrich. Stock solutions of thrombin and factor XIa were prepared in 50 mM Tris-HCl buffer, pH 7.4, containing 150 mM sodium chloride, 0.1% PEG8000, and 0.02% Tween80. The stock solution of factor Xa was prepared in 20 mM Tris-HCl buffer, pH 7.4, containing 100 mM sodium chloride, 0.1% PEG8000, 2.5 mM CaCl2, and 0.02% Tween80. The stock solutions of FXIIIa and rTG-2 were prepared in 50 mM Tris-HCl, 1 mM CaCl2, 100 mM sodium chloride, 0.02% Tween80, 0.1% PEG8000, and 2 mg/mL dimethylcasein. Papain and its chromogenic substrate (N-α-benzoyl-L-arginyl-4-nitroanilide) were obtained from Sigma Aldrich. Papain was prepared in 50 mM Tris-HCl buffer, pH 7.4, containing 100 mM NaCl, 100 mM DTT, 2.5 mM CaCl2, 0.1% PEG8000, and 0.02% Tween80. Human plasma for coagulation assays was obtained from George King Bio-Medica for the clotting assays. Thromboplastin-D (PT reagent), APTT reagent containing ellagic acid, and 0.025 M solution of CaCl2 were obtained from Thermo Fisher Scientific. Results were reproduced at least three times.
For tissue TG-2, a recombinant protein (rTG-2) was used in a bisubstrate, fluorescence-based trans-glutamination assay involving dansylcadaverine and N,N-dimethylcasein as substrates and under similar conditions used for human FXIIIa above. The activity of rTG-2 was monitored following the addition of 5 μL of dansylcadaverine (2 mM) by measuring the initial rate of increase in fluorescence emission (λEx. = 360 nm and λEm. = 490 nm). Relative residual rTG-2 activity at each concentration of inhibitor 16 was calculated from the ratio of rTG-2 activity in the presence and absence of the inhibitor. Logistic eq 1 was used to fit the concentration dependence of residual rTG-2 activity to obtain the IC50 and ΔY% of inhibition.

## Nc1c(/N=N/c2ccc(S(=O)(=O)CCOS(=O)(=O)O)cc2)c(S(=O)(=O)O)cc2cc(S(=O)(=O)O)c(/N=N/c3ccc(S(=O)(=O)CCOS(=O)(=O)O)cc3)c(O)c12 [compound 16]
  selectivity for FXIIIa over rTG-2: 9 fold
Recombinant TG-2
  IC50: 18.1 ± 3.1 µM
  rTG-2 HS (Hill slope): 2.2 ± 0.9
  rTG-2 ΔY: 86 ± 7%
